Test results published in patent publication US11780834B2, “Solid forms of 3-((1R,3R)-1-(2,6-difluoro-4-((1-(3-fluoropropyl)azetidin-3-yl)amino)phenyl)-3-methyl-1,3,4,9-tetrahydro-2H-pyrido[3,4-b]indol-2-yl)-2,2-difluoropropan-1-ol and processes for preparing fused tricyclic compounds comprising a substituted phenyl or pyridinyl moiety, including methods …” (Hoffmann-La Roche Inc., priority 2018, dated 2023).
Structures can show the parent of a compound that is named as a salt. Where two headings read alike, the source gives them in different places.

Tests used:
[1] = Pharmacokinetics after single IV administration; format: in vivo, and monkeys; details: rats, dogs, monkeys
[2] = Oral bioavailability in monkeys; details: monkey, in vivo
[3] = In vitro metabolite identification; format: in vitro ADME
CYP2C9 = target: T1, CYP2C9 (Homo sapiens, UniProt P11712); test: CYP2C9 metabolism dependent inhibition; format: in vitro ADME
T1 construct: from tissue; host or cells: human liver microsomes
T1 sequence (P11712 whole entry): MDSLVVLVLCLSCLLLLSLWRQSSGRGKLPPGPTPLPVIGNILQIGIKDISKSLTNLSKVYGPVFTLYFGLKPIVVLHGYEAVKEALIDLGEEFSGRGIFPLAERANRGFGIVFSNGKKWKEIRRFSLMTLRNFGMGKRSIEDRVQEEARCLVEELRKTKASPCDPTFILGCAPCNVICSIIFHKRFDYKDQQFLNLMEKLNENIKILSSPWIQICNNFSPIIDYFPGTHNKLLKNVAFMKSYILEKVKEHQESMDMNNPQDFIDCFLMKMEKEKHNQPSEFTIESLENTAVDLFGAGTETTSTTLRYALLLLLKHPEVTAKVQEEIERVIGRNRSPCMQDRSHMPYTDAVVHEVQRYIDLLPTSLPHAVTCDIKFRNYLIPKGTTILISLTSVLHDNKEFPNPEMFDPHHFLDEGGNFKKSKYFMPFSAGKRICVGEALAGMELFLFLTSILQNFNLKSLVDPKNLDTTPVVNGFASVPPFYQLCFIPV

CYP3A4 = CYP3A4 (Homo sapiens, UniProt P08684); details: read-out: CYP3A4 inhibition IC50, direct inhibition, human liver microsomes
Chain of CYP3A4 (P08684 whole entry): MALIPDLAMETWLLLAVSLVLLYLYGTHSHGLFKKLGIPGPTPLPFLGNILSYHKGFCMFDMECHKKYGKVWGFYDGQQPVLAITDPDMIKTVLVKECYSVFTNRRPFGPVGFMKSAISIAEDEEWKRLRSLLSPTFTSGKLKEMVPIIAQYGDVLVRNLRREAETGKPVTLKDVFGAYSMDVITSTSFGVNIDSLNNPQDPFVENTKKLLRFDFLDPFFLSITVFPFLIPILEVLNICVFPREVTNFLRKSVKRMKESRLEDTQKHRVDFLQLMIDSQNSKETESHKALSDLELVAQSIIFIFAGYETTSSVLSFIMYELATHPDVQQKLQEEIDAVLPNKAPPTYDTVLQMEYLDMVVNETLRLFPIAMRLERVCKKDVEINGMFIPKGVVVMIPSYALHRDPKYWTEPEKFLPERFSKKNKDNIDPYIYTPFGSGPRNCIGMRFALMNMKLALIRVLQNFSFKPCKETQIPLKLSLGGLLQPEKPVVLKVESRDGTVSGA

In the case of C[C@@H]1Cc2c([nH]c3ccccc23)[C@@H](c2c(F)cc(NC3CN(CCCF)C3)cc2F)N1CC(F)(F)CO [Compound B, 3-((1R,3R)-1-(2,6-difluoro-4-((1-(3-fluoropropyl)azetidin-3-yl)amino)phenyl)-3-methyl-1,3,4,9-tetrahydro-2H-pyrido[3,4-b]indol-2-yl)-2,2-difluoropropan-1-ol tartrate], the half-life ([1]; rat, dog, monkey, in vivo, read-out: Terminal elimination half-life) is reported as 7 to 24 h, the Clearance [1] is reported as “low to moderate” and the Volume of distribution [1] is reported as “large”. The bioavailability [2] was 17%, the “Major in vitro metabolic pathway” value [3] was “UGT1A4-mediated glucuronidation” and the “Metabolism dependent inhibition of CYP2C9” value (CYP2C9) was “weak”. For the same molecule, the IC50 (CYP3A4; midazolam 1′-hydroxylation) was 6.5 µM and the IC50 (CYP3A4; testosterone 6β-hydroxylation) was 26 µM.
